In PMC10298982, “Stability Characterization of the Novel Anti-Cancer HM-10/10 HDL-Mimetic Peptide” (International Journal of Molecular Sciences, 2023):
Where two headings read alike, the source gives them in different places.

How the values were obtained:
in vitro [1] = details: human, plasma, pH 7.4
Experimental: (§7) The supernatant was removed and incubated at 37 °C for at least 10 min before use. The pH of each matrix was checked and adjusted to pH 7.4 using 10% phosphoric acid or 1 N sodium hydroxide as necessary.
(§8) Test and control article stock solutions were spiked (1.5 µL) into matrix (0.749 mL) to a final assay concentration of 2 µM and mixed. […] These tubes were sealed and incubated at 37 °C with shaking.
(§9) The quenched samples were mixed briefly by vortexing and stored in a −20 °C freezer.
(§10) Sample plates were stored refrigerated until analysis.
(§11) The column was set to a temperature of 55 °C. […] The instrument was equipped with an electrospray ionization source (500 °C) operated in positive-ion mode.
(§12) Peak area ratios for IS-normalized test article and control article counts were used to calculate the percent remaining relative to the time zero (T0) value. As appropriate, results were plotted and further analyzed to calculate half-life (T1/2) values.
(§13) Mean peak ratios were used to calculate the percent remaining relative to the T0 value: % Remaining at Timex = (mean peak area ratio Tx/mean peak ratio T0) × 100.

in vitro [2] = details: CD-1, mouse, plasma, pH 7.4
Experimental: as §7, §8, §9, §10, §11, §12, §13

in vitro [3] = details: Sprague-Dawley, rat, plasma, pH 7.4
Experimental: as §7, §8, §9, §10, §11, §12, §13

in vitro [4] = details: beagle, dog, plasma, pH 7.4
Experimental: as §7, §8, §9, §10, §11, §12, §13

in vitro [5] = details: cynomolgus monkey, plasma, pH 7.4
Experimental: as §7, §8, §9, §10, §11, §12, §13

[6] = Stability in potassium phosphate buffers of pH 1.3, 5.5 and 7.4; format: physicochemical; details: potassium phosphate buffer; for remaining at 1 h, 2 µM: read-out: % Remaining at 60 min
Experimental: The stability of HM-10/10 under varying pH conditions was determined by adding the compound to potassium phosphate buffers of pH 1.3 (acidic), 5.5 (slightly acidic), and 7.4 (physiological pH), with 7-Ethoxycoumarin used as a control article. Under acidic and slightly acidic conditions, the half-life of HM-10/10 could not be determined, as the percentage of HM-10/10 was higher at the end of the time course than at the beginning (Table 3, Figure 3). […] Samples were tested at 2 µM.
The instrument was equipped with an electrospray ionization source (600 °C) operated in the positive-ion mode.

[7] = Stability in simulated gastric fluid (SGF); format: in vitro ADME; details: SGF pH 1.3
Experimental: (§1) When developing any potentially oral-route pharmaceutical agent, the denaturing and pepsin-rich environment of the stomach must be considered. The stability of HM-10/10 was tested in simulated gastric fluid (SGF) and simulated intestinal fluid (SIF) over 120 min. […] Samples were tested at 2 μM.
(§2) For the HM-10/10 stability assay in simulated gastric and intestinal fluids, propantheline was used to confirm retention time and carbutamide was used as the internal standard for calculations.

[8] = Stability in simulated intestinal fluid (SIF); format: in vitro ADME; details: simulated intestinal fluid (SIF), SIF pH 5.5
Experimental: as §1, §2

CYP2B6 [9] = assay: CYP2B6 induction (enzyme activity) in single-donor human hepatocytes; details: 1000 µM (positive control)
Experimental: The transport medium was replaced with 200 μL of warm (37 °C) incubation medium (InVitroGRO HI, BioIVT Catalog No. Z99009) and the plate was placed in a humidified 5% carbon dioxide incubator at 37 °C for 24 h.
In addition, test article vehicle (PBS) was added to warm (37°C) InVitroGRO HI Medium in a 5:95 (v:v) ratio. […] The plates were removed from the incubator and the hepatocytes were prepared for the induction assay by replacing the cell culture medium with medium containing either the test article, a control inducer, or vehicle control (200 µL per well). The hepatocyte plates were returned to the cell culture incubator and incubated for 24 h.
On Day 3, induction was repeated following the same steps as described above for the previous day, and plates were returned to the cell culture incubator for an additional 24 h.
After aliquots were taken to measure test article stability, all the remaining medium from each well in the hepatocyte plate was removed, all wells were washed once using 200 μL of blank assay buffer, and then 100 μL of the 1000-fold diluted substrate solutions were added to the appropriate wells. The assay plate was returned to the humidified 5% carbon dioxide incubator at 37 °C for 1 h incubation.
At the end of the incubation time, 100 μL of mRNA lysis buffer was added to each well to stop the reaction. Fifty microliters of this reaction mixture were transferred into a new plate and quenched with 200 μL of ice-cold acetonitrile containing a CYP-specific stable labeled internal standard (250 ng/mL acetaminophen-d4, 250 ng/mL hydroxybupropion-d6, or 250 ng/mL hydroxytestosterone-d3). After removal of the aliquots from the plate for enzyme activity determination, the assay plates were sealed and stored in a −70 °C freezer until use for RT-PCR, mRNA analysis.
For the induction assay samples, an aliquot (50 µL) of the supernatant was transferred to a new plate and diluted with 100 µL Milli-Q water. For the test article stability samples, an aliquot (50 µL) of the supernatant was transferred to a new plate and diluted with 60 µL 0.1% formic acid in Milli-Q water. These samples for the enzyme activity assay and article stability test were refrigerated for storage until analysis. […]
HM1010: Induction Potential of Cytochrome P450 Enzymes
(CYP1A2, CYP2B6 and CYP3A4) Using Human Cryopreserved Hepatocytes
Testing Facility Study No.
The purpose of this in-vitro study was to determine the induction potential of HM1010 on human
cytochrome P450 (CYP) isoenzyme (1A2, 2B6 and 3A4) activity. The study design is
Matrix: Inducible cryopreserved human hepatocytes three single-donor lots
Assay Buffer: InVitroGRO KHB
Substrates: Phenacetin (1A2), Bu propion (2B6), and Testosterone (3A4)
Assay conditions: 48 hours at 37°C in humidified 5% carbon dioxide incubator
Analysis: LC-MS/MS (enzyme activity) and mRNA analysis

CYP2B6 [10] = assay: CYP2B6 induction (mRNA expression) in single-donor human hepatocytes; format: in vitro ADME; details: 1000 µM (control)
Experimental: (§3) RNA isolation and quantification: E-Z 96 Total RNA Kit (Omega Bio-tek, Catalog No. R1034-02) was used for RNA isolation and Quant-iT RNA assay kit (ThermoFisher, Catalog No. Q33140) was used for RNA quantification. The plates were removed from a −80 °C freezer and equilibrated to room temperature. RNA was extracted using the manufacturer’s recommended protocol. Eighty-one microliters of 100% ethanol were added into each well containing 150 µL of lysed sample to make a final ethanol concentration at 35%.
(§4) cDNA generation: For cDNA generation, a High-Capacity cDNA Reverse Transcription Kit (Applied Biosystems, Catalog No. 4319983) and QuantStudio 3 PCR system (Applied Biosystems) were used. In this step, 2X Reverse Transcription Master Mix was prepared using the contents of the kit. Then, 10 µL of total RNA was added to 10 µL of 2X Reverse Transcription Master Mix in a microplate and the plate was sealed. This plate was then run in a thermocycler to generate cDNA.
(§5) Real time PCR: SsoAdvanced Universal SYBR® Green Supermix (BIO-RAD, Catalog No. 172-5270) and the QuantStudio 3 Real-Time PCR system (Applied Biosystems) were used to perform real-time PCR on the generated cDNA. In this step, a PCR mix was prepared using PCR Supermix, SYBR® primers for the targeted genes, and nuclease-free water. Two microliters of ten-fold diluted cDNA samples (5 µL of cDNA into 45 μL of nuclease-free water) were added to 8 µL of PCR Mix in a microplate and sealed. This plate was then run through the Real-Time PCR system to generate the mRNA expression data.
(§6) • Human GAPDH • F: […] • R: […] • Human CYP1A2 • Unique Assay ID: qHsaCID0015160 • Chromosome Location: 15:75045562-75047256 • Human CYP2B6 • F: […] • R: […] • Human CYP3A4 • F: […] • R: […]

CYP2C9 = CYP2C9 (Homo sapiens, UniProt P11712)
CYP2C19 [11] = molecular target: T1, CYP2C19 (Homo sapiens, UniProt P33261)
CYP1A2 = CYP1A2 induction (mRNA expression) in single-donor human hepatocytes; format: in vitro ADME; details: 50 µM (control)
Experimental: as §3, §4, §5, §6

CYP2C19 [12] = molecular target: T1, CYP2C19; assay: CYP450 time-dependent inhibition, CYP2C19, pooled human liver microsomes; details: Mephenytoin (2C19)
CYP2C19 [13] = molecular target: T1, CYP2C19; assay: in vitro; details: both, microsomes
CYP2C8 = molecular target: T2, CYP2C8 (Homo sapiens, UniProt P10632); assay: CYP450 time-dependent inhibition, CYP2C8, pooled human liver microsomes; details: Amodiaquine (2C8)
T2 sequence (P10632 1-490): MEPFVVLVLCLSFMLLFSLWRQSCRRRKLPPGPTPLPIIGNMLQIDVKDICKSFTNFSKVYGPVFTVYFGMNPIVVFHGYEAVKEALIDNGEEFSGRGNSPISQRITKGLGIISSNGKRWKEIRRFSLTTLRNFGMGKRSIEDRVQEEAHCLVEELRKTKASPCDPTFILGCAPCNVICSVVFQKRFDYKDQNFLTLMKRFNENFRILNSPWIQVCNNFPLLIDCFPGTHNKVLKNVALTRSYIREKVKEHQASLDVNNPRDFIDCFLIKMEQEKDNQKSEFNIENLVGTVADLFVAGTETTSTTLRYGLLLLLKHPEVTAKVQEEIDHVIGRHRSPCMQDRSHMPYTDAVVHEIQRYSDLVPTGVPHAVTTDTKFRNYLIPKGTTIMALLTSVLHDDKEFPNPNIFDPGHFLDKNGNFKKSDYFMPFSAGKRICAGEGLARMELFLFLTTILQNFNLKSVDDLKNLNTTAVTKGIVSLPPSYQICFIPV

CYP2D6 [14] = molecular target: T3, CYP2D6 (Homo sapiens, UniProt P10635)
CYP2D6 [15] = molecular target: T3, CYP2D6; assay: in vitro; details: both, microsomes
[16] = both, human, microsomes, pH 7.4
[17] = pH 7.4, % Inhibition at 50 µM No PI + NADPH
[18] = pH 7.4, % Inhibition at 50 µM No PI − NADPH
[19] = pH 7.4, % Inhibition at 50 µM PI + NADPH
[20] = pH 7.4, % Inhibition at 50 µM PI − NADPH

CYP2C9, sequence (P11712 whole entry): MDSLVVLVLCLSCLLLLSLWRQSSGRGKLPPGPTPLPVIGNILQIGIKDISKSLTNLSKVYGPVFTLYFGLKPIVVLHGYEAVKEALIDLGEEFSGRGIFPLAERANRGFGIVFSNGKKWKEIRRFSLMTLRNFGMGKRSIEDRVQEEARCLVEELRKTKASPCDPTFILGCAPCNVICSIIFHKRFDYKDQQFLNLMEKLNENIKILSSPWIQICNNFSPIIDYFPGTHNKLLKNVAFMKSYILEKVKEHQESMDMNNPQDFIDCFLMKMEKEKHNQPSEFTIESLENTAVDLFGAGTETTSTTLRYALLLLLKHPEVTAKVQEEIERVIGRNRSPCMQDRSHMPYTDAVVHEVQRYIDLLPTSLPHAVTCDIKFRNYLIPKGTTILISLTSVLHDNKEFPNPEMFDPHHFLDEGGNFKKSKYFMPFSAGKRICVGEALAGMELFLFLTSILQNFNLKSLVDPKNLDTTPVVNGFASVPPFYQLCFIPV
T3 sequence (P10635 whole entry): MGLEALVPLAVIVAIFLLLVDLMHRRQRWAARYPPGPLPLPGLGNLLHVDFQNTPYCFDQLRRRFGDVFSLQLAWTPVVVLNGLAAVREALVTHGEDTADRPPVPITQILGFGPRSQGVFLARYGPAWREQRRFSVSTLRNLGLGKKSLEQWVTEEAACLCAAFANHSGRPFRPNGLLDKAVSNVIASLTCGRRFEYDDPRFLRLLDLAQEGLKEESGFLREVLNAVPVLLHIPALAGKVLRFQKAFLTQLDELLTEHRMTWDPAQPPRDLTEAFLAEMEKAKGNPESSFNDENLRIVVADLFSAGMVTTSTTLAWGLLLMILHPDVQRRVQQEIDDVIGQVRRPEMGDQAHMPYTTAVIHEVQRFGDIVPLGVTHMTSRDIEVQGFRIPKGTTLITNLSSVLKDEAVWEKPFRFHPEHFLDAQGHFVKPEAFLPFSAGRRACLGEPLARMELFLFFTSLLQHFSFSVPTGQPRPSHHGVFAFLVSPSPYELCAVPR
T1 sequence (P33261 whole entry): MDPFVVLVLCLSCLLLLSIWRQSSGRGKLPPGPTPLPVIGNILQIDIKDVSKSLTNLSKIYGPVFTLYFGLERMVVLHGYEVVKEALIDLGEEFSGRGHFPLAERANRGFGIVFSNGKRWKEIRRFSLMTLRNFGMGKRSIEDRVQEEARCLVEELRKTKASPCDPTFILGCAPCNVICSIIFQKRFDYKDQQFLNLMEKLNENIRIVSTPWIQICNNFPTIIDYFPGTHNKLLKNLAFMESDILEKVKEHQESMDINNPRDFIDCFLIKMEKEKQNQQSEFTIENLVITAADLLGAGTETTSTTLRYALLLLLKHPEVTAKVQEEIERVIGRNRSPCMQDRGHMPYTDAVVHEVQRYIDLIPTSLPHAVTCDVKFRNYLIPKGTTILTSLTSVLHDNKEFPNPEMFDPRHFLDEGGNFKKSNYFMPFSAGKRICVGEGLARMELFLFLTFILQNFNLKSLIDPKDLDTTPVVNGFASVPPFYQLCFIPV

## CC[C@H](C)C(=O)O[C@H]1C[C@@H](C)C=C2C=C[C@H](C)[C@H](CC[C@@H]3C[C@@H](O)CC(=O)O3)[C@H]21 [Lovastatin, lovastatin]
In vitro [1]
  half-life at 2 µM: 10.8 h
  remaining at 2 h, 2 µM: 81.1%
In vitro [2]
  half-life at 2 µM: 0.24 h
In vitro [3]
  half-life at 2 µM: 0.138 h
In vitro [4]
  half-life at 2 µM: 7.42 h
  remaining at 2 h, 2 µM: 73.2%
In vitro [5]
  half-life at 2 µM: > 2 h
  remaining at 2 h, 2 µM: 115%

## CCOc1ccc2ccc(=O)oc2c1 [7-Ethoxycoumarin, reference compound]
[6]; Acidic (pH 1.3)
  half-life at 2 µM: 13.5 h
  remaining at 1 h, 2 µM: 89%
[6]; Physiological pH (pH 7.4)
  half-life at 2 µM: 11.8 h
  remaining at 1 h, 2 µM: 87.5%
[6]; Slightly Acidic (pH 5.5)
  half-life at 2 µM: 16.5 h
  remaining at 1 h, 2 µM: 90%

## CC(C)[N+](C)(CCOC(=O)C1c2ccccc2Oc2ccccc21)C(C)C [Propantheline, propantheline]
In vitro [1]
  half-life at 2 µM: 0.76 h
  remaining at 2 h, 2 µM: 13.3%
[7]
  half-life at 2 µM: 8.7 h
In vitro [2]
  half-life at 2 µM: 1.17 h
  remaining at 2 h, 2 µM: 27%
[8]
  half-life at 2 µM: 13.6 h
In vitro [3]
  half-life at 2 µM: 77.5 h
  remaining at 2 h, 2 µM: 95%
In vitro [4]
  half-life at 2 µM: 4.1 h
  remaining at 2 h, 2 µM: 65.7%
In vitro [5]
  half-life at 2 µM: 11.1 h
  remaining at 2 h, 2 µM: 80.3%

## CCC1(c2ccccc2)C(=O)NC(=O)NC1=O [Phenobarbital, phenobarbital, reference compound]
CYP2B6 [9]
  Fold Increase (Enzyme Activity) Lot HH1086: 11.8 fold
  Fold Increase (Enzyme Activity) Lot HH1142: 21.4 fold
  Fold Increase (Enzyme Activity) Lot HH1144: 7.23 fold
CYP2B6 [9]; mean of three lots
  Fold Increase (Enzyme Activity) Mean: 13.5 fold
CYP2B6 [10]
  Comments (mRNA induction): Induced as Expected
  Fold Increase (mRNA Expression) Lot HH1086: 15.5 fold
  Fold Increase (mRNA Expression) Lot HH1142: 22.3 fold
  Fold Increase (mRNA Expression) Lot HH1144: 7.54 fold
  Fold Increase (mRNA Expression) Mean of 3 Lots: 15.1 fold

## Nc1ccc(S(=O)(=O)Nc2ccnn2-c2ccccc2)cc1 [Sulfaphenazole, sulfaphenazole]
CYP2C9
  Comments (time-dependent inhibition): No TDI
CYP2C9; [16]
  % Inhibition at 50 µM No PI + NADPH: 99.2%
  % Inhibition at 50 µM No PI − NADPH: 99.1%
  % Inhibition at 50 µM PI + NADPH: 99.7%
  % Inhibition at 50 µM PI − NADPH: 99.9%

## COc1ccc2[nH]c([S+]([O-])Cc3ncc(C)c(OC)c3C)nc2c1 (stereo not shown) [Omeprazole, omeprazole]
CYP2C19 [11]
  Comments (time-dependent inhibition): +TDI
CYP1A2
  Comments (mRNA induction): Induced as Expected
CYP2C19 [12]; IC50 (µM) No PI + NADPH, No PI + NADPH
  IC50: 4.77 µM
CYP2C19 [12]; IC50 (µM) No PI − NADPH, No PI − NADPH
  IC50: 5.39 µM
CYP2C19 [13]; [17]
  inhibition at 30 min, 50 µM: 92.9%
CYP2C19 [13]; [18]
  inhibition at 30 min, 50 µM: 93.1%
CYP2C19 [13]; [19]
  inhibition at 30 min, 50 µM: 95.8%
CYP2C19 [13]; [20]
  inhibition at 30 min, 50 µM: 90.7%

## O=c1c(O)c(-c2ccc(O)c(O)c2)oc2cc(O)cc(O)c12 [Quercetin, quercetin]
CYP2C8
  Comments (time-dependent inhibition): No TDI
CYP2C8; 50 µM, No PI + NADPH
  % Inhibition at 50 µM No PI + NADPH: 100.5%
CYP2C8; 50 µM, No PI − NADPH
  % Inhibition at 50 µM No PI − NADPH: 100.9%
CYP2C8; 50 µM, PI + NADPH
  % Inhibition at 50 µM PI + NADPH: 100.8%
CYP2C8; 50 µM, PI − NADPH
  % Inhibition at 50 µM PI − NADPH: 100.5%

## Fc1ccc([C@@H]2CCNC[C@H]2COc2ccc3c(c2)OCO3)cc1 [Paroxetine, paroxetine]
CYP2D6 [14]
  Comments (time-dependent inhibition): +TDI
CYP2D6 [15]; [17]
  inhibition at 30 min, 50 µM: 99%
CYP2D6 [15]; [18]
  inhibition at 30 min, 50 µM: 99.1%
CYP2D6 [15]; [19]
  inhibition at 30 min, 50 µM: 100%
CYP2D6 [15]; [20]
  inhibition at 30 min, 50 µM: 99%
